pIC50: −log10 of the molar value. Counter-ions that a name gives are not always drawn.
Columns and labels:
[1] = Pharmacokinetic test in mice; format: in vivo, ICR mice; conditions: mouse, plasma, po, i. g., 10 mg/kg
How it was run: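 Male ICR mice (20-35 g), fasted overnight and fed 4 h post-dose, received a single intravenous or intragastric dose. Orbital blood into EDTA-K2 tubes at 0–24 h; plasma quantified by LC-MS/MS to derive PK parameters and bioavailability.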

[2] = biological target: T1, HPK1 kinase (Homo sapiens, UniProt Q92918); assay: HPK1 kinase assay (Km concentration ATP); format: biochemical; conditions: for pIC50: ATP at Km concentration (working concentration: 9 µM); for inhibitory activity against HPK1 kinase (in words): Km concentration ATP, conclusion
T1 construct: purchased Carna 07-410
T1 sequence (Q92918 1-346 limits assumed): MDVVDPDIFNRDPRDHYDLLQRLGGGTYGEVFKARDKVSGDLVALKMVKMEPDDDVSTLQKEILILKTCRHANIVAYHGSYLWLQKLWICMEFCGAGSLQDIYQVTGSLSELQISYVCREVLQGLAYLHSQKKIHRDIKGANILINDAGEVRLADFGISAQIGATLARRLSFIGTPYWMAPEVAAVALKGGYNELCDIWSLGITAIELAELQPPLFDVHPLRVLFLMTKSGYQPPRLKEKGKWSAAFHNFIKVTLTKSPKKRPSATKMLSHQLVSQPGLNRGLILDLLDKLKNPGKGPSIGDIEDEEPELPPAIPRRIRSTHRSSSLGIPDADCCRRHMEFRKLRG
Protocol: Test example 3: HPK1 kinase assay (Km concentration ATP)
The kinase HPK1 (Carna, Cat.No 07-410) was prepared into 2× kinase solution using 1× kinase buffer. The substrate Fluorescein-PKC (Invitrogen, Cat. No. PV3506) and ATP (working concentration: 9 µM) (Sigma, Cat. No. 2383-5G) were prepared into 2× substrate solution using 1×kinase buffer. The detection reagent was diluted to 2-fold the final concentration using an antibody diluent. 100 nL of compounds at different concentrations and 5 µL of kinase solution were added to each well of a 384-well plate, and the mixture was incubated at room temperature for 10 minutes. After the incubation was completed, 5 µL of substrate solution was added to each well, and the resulting mixture was reacted at room temperature for 90 minutes. After the reaction was completed, 10 µL of detection reagent was added to each well to terminate the reaction, and the mixture was incubated at room temperature for 60 minutes. Fluorescence readings were detected using an Envision instrument with excitation at 320 nm and emission at 520 nm and 495 nm. IC50 value was calculated using XLFit excel add-in version 5.4.0.8 software. The calculation formula of the inhibition rate was shown in formula 3-1, where max is the Ratio of the DMSO control, min is the Ratio of the negative control without enzyme, and sample is the Ratio of the compound. Ratio = RFU520nm /RFU495nm [formula] Inhibition% = (max−sample)/(max−min) × 100% [formula] Table 3-1 Inhibitory activity of test compounds against HPK1 kinase

[3] = biological target: T2, HPK1 protein (Homo sapiens, UniProt Q92918); assay: Detection of HPK1 protein expression level in Jurkat cells (24 h); format: cell-based; conditions: 24 hours incubation
T2 construct: host or cells: Jurkat cells
How it was run: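 Jurkat cells at 5 × 10^5 cells/well were exposed to compounds for 24 h at 37 °C, with vehicle medium containing 0.2% DMSO as control. HPK1 in lysates (0.2 mg/mL) was measured by automated quantitative immunoassay and normalized to β-actin. Degradation was expressed relative to vehicle, and DC50 came from four-parameter fits.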

[4] = tested on: IL-2 secretion by T cells; assay: IL-2 detection assay in cells (ELISA, pan-T cells isolated from PBMCs); format: cell-based; conditions: IL-2, CD3 antibody-coated plate, 24 hours
Protocol: 9. IL-2 detection assay in cells
Activating effect of compounds on IL-2 secretion by T cells was evaluated using the ELISA method. Frozen PBMCs were thawed, and pan-T cells were isolated and purified using a T cell sorting kit (Stemcell, 17951). The cells were resuspended in 1640 complete medium and incubated in a 37°C&5%CO2 incubator overnight. A 96-well plate coated with an anti-human CD3 antibody (Thermo, 16-0037-38) at a final concentration of 5 µg/mL was incubated at 37°C for 2 h. The overnight-cultured cells were collected by centrifugation, the supernatant was discarded, and the cells were resuspended in 1640 complete medium, and seeded in the CD3 antibody-coated 96-well plate at a density of 10^5cells/well. The compounds at different concentrations were added, and the mixture was incubated in a 37°C&5%CO2 incubator for 24 hours. After the incubation was completed, the resulting mixture was centrifuged at 1000 rpm for 1 minute to collect the supernatant, and IL-2 was detected according to the ELISA instructions. DMSO without compounds was used as the control group to calculate the activation rate of the compounds, and prism was used to fit the activation curve. Maximum activation fold = maximum activation rate/control group. Table 9-1 Results of IL-2 activation by test compounds

[5] = Pharmacokinetic test in rats; format: in vivo, SD rats; conditions: rat, plasma
Protocol: Test example 7: Pharmacokinetic test in rats
Experimental animals: Male SD rats, 180-200 g, purchased from Chengdu Dossy Experimental Animals Co., Ltd. with the laboratory animal production license number of SCXK (CHUAN) 2020-030.
Experimental design: on the day of the experiment, the SD rats were randomly grouped according to their body weights. The animals were fasted but with water available overnight before the administration, and fed 4 h after the administration.
Vehicle for intragastric administration: 5% Solutol+5% TPGS+30% PEG400+60% (20% SBE-β-CD)
Blood was taken from the orbits of the […] at specified time points, and placed in an EDTAK2 centrifuge tube. Centrifugation was performed at 5000 rpm for 10 min, and the plasma was collected.
Blood sampling time points for the intravenous administration group were: 0, 5 min, 15 min, 30 min, 1 h, 2 h, 4 h, 6 h, 8 h and 24 h; blood sampling time points for the intragastric administration group were: 0, 5 min, 15 min, 30 min, 1 h, 2 h, 4 h, 6 h, 8 h and 24 h. Before analysis and detection, all the samples were stored at - 60°C or lower. The samples were analysed quantitatively by LC-MS/MS. Table 7-1 PK data of test compound drug in rats

T2 sequence (Q92918 whole entry): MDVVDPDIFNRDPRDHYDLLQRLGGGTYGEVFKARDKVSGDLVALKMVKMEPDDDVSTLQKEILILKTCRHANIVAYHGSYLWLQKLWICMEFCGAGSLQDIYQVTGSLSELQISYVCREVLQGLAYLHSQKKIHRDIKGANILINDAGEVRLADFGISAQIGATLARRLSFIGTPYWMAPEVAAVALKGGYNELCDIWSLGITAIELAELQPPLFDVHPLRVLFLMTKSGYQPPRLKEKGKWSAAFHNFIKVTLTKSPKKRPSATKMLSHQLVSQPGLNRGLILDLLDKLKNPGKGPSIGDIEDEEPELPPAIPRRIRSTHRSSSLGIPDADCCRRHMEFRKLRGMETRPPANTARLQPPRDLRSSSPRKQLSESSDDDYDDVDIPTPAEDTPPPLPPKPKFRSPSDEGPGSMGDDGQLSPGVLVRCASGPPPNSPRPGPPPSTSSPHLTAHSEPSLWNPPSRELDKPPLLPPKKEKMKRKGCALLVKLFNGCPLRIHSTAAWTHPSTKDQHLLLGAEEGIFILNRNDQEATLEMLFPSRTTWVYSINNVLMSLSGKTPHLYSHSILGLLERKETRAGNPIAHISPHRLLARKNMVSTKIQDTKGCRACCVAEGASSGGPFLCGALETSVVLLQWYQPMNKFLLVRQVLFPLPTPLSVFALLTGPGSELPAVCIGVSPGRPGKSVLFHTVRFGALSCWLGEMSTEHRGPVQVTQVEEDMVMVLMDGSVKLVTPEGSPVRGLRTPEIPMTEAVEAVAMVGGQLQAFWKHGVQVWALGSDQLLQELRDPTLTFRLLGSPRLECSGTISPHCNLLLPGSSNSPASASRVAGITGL

Row | SMILES | AUC [1] [ng·h/mL] | Cmax [1] [ng/mL] | half-life [1] [h] | pIC50 [2] | inhibitory activity against HPK1 kinase (in words) [2] | DC50 [3] [nM] | Activation fold at 100 nM concentration ([4]; 100 nM) | Maximum activation fold ([4]; maximum activation rate/control group) | clearance ([5]; IV, 2.5 mg/kg) [mL/min/kg] | half-life ([5]; IV, 2.5 mg/kg) [h] | AUC ([5]; po, i. g., 10 mg/kg) [ng·h/mL] | Cmax ([5]; po, i. g., 10 mg/kg) [ng/mL] | half-life ([5]; po, i. g., 10 mg/kg) [h]
1 | O=C1CCN(c2cc3c(cc2F)N2CCN(CC4CCN(c5ccc(Nc6ccc(-c7cnc8cc(F)ccn78)c7c6C(=O)NC7)nc5)CC4)C[C@@H]2CC3)C(=O)N1 [Compound 5] | 20000 | 1380 | 6.45 | > 8.00 | good inhibitory activity | < 20 | – | – | – | – | – | – | –
2 | O=C1CCN(c2ccc(N3CCN(CC4CCN(c5ccc(Nc6ccc(-c7cnc8cc(F)ccn78)c7c6C(=O)NC7)nc5)CC4)CC3)cc2F)C(=O)N1 [Trifluoroacetic acid salt of compound 2] | 16800 | 1280 | 5.79 | > 8.00 | good inhibitory activity | < 20 | – | – | – | – | – | – | –
3 | O=C1CCC(c2cc3c(cc2F)N2CCN(CC4CCN(c5ccc(Nc6ccc(-c7cnc8cc(F)ccn78)c7c6C(=O)NC7)nc5)CC4)C[C@@H]2CC3)C(=O)N1 (stereo partly shown) [Trifluoroacetic acid salt of compound 4] | 15200 | 1140 | 7.27 | > 8.00 | good inhibitory activity | < 20 | – | – | – | – | – | – | –
4 | O=C1CCN(c2cc3c(cc2F)N2CCN(CC4CCN(c5ccc(Nc6ccc(-c7cnc8cc(F)ccn78)c7c6C(=O)NC7)nc5)CC4)C[C@H]2CC3)C(=O)N1 [Trifluoroacetic acid salt of compound 6] | 20800 | 1520 | 5.35 | > 8.00 | good inhibitory activity | < 20 | >10 | >10 | 9.78 | 6.58 | 8360 | 721 | 6.4
